Data reported in ChEMBL document CHEMBL1201862, “PubChem BioAssay data set” (2004).
The source made the active and inactive calls.

Tests used:
Bcl-2-related protein A1 [1] = target: T1, Bcl-2-related protein A1 (Mus musculus, UniProt Q07440); experiment: Bfl-1 binding inhibitors, SAR follow-up, biochemical, fluorescence polarization (AID 1070)
T1 sequence (Q07440 whole entry): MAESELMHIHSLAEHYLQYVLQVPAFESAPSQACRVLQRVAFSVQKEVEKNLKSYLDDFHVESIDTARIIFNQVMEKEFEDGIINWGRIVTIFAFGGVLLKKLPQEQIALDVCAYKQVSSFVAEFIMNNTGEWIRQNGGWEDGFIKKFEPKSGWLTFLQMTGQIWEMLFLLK

Bcl-2-related protein A1 [2] = target: T1, Bcl-2-related protein A1; experiment: small-molecule antagonists of Bfl-1/BH3 interaction – biochemical, TR-FRET, mouse Bfl-1, confirmation (AID 621);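 also: TR-FRET binding of GST-Bfl-1 to FITC-labelled Bid peptide via terbium antibody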
[3] = target: Glyceraldehyde-3-phosphate dehydrogenase (Homo sapiens, UniProt P04406)
Chain of Glyceraldehyde-3-phosphate dehydrogenase (P04406 whole entry): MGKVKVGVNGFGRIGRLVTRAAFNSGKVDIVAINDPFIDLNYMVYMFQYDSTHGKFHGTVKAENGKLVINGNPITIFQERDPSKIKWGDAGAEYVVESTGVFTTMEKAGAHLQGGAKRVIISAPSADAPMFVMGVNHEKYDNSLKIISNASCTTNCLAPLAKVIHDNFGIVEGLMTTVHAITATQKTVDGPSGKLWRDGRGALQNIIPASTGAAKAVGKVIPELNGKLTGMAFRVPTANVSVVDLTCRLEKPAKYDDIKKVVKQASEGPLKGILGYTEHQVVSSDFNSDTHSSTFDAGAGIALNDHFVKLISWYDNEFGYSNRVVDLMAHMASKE

[4] = target: Melanin-concentrating hormone receptor 1 (Homo sapiens, UniProt Q99705); experiment: Fluorescence-based counterscreen for antagonists of the G-protein coupled receptor 7 (GPR7): cell-based high throughput dose response assay to identify antagonists of the melanin-concentrating hormone receptor 1 (MCHR1).; format: functional
Chain of Melanin-concentrating hormone receptor 1 (Q99705 whole entry): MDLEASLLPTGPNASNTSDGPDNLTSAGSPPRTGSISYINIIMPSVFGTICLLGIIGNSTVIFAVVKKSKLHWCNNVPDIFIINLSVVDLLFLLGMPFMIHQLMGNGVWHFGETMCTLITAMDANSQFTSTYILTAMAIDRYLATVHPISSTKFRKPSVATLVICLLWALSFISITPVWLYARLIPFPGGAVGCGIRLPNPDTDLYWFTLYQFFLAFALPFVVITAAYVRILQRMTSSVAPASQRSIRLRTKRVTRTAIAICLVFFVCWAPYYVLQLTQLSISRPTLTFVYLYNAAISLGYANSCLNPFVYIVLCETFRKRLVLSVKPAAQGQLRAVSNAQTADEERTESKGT

[5] = target: T2, Neuropeptides B/W receptor type 1 (Homo sapiens, UniProt P48145); experiment: Fluorescence-based dose response cell-based high throughput screening assay to identify antagonists of the G-protein coupled receptor 7 (GPR7). [Related pubchem assays: 1952 (Screening assay (GPR7 antagonists).), 1880 (Summary AID.)]; format: functional
T2 sequence (P48145 whole entry): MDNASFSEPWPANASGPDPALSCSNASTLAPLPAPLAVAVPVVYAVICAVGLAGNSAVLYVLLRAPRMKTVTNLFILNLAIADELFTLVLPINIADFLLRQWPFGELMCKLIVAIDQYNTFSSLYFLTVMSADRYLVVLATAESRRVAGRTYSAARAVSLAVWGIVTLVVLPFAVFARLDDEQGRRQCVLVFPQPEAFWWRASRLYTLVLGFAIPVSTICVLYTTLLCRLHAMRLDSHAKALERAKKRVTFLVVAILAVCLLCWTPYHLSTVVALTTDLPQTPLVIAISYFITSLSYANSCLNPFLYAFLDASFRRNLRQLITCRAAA

Bcl-2-related protein A1 [6] = target: T1, Bcl-2-related protein A1; experiment: displacement of Bid BH3 peptide from Bfl-1 – biochemical, fluorescence polarization, FITC-Bid, mouse, primary screen (AID 432)
[7] = mitochondrial function rescue without frataxin homolog – Friedreich's ataxia, plus single-dose screen, dose response (AID 1465); format: functional;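 also: yeast depleted of Yfh1p frataxin homolog grown on glycerol needing respiration; WST-1 tetrazolium dye reduction as measure of cellular dehydrogenase metabolic activity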
Cytochrome P450 2C19 = Cytochrome P450 2C19 (Homo sapiens, UniProt P33261); experiment: qHTS Assay for Inhibitors and Substrates of Cytochrome P450 2C19. [Related pubchem assays: 410 ]; format: ADME; conditions: read-out: Potency
Chain of Cytochrome P450 2C19 (P33261 whole entry): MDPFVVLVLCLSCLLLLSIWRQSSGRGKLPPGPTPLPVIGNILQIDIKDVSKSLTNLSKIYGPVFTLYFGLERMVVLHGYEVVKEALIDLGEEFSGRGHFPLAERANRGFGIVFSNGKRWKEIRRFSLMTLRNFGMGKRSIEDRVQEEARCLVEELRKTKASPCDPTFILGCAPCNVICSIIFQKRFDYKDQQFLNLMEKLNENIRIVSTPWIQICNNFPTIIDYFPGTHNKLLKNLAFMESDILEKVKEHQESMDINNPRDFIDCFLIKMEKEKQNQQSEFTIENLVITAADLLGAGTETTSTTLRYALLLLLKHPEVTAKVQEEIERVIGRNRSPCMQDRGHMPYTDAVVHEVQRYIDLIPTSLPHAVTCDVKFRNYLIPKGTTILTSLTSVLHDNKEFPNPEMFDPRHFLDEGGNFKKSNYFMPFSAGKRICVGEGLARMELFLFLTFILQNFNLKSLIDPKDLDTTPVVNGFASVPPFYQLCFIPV

[8] = alpha-synuclein stem-loop luciferase translation blockers – H4 neuroglioma cells, luminescence, confirmation (AID 1988); format: functional, cell-based
[9] = luciferase reporter signal suppression in cells – H4 neuroglioma cells, luminescence, dose response (AID 1990); format: functional, cell-based
[10] = Luminescence Cell-Based Dose Response HTS to Identify Inhibitors of 5'UTR Stem-Loop Driven Prion Protein mRNA Translation in H4 Neuroglioblastoma Cells. [Related pubchem assays: 1827 (Project Summary), 1813 (Primary HTS)]; format: functional
[11] = Luminescence-based dose response cell-based high throughput screening assay for cytotoxic compounds using the IEC-6 intestinal epithelial cell line. [Related pubchem assays: 1858 (Summary AID.), 1825 (Counterscreen.), 1907 (Confirmation screen.)]; format: functional
[12] = target: 5-hydroxytryptamine receptor 1A (Homo sapiens, UniProt P08908); format: functional
Chain of 5-hydroxytryptamine receptor 1A (P08908 whole entry): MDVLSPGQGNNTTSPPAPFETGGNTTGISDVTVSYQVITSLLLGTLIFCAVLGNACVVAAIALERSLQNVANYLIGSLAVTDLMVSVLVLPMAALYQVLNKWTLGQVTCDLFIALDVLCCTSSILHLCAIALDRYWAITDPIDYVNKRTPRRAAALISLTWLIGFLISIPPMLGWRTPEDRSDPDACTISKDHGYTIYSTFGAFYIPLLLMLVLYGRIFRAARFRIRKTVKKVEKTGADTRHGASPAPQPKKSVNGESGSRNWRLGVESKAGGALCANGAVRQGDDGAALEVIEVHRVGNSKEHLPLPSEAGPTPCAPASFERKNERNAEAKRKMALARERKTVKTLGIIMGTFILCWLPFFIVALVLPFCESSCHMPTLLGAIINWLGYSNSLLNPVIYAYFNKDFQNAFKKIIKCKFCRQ

CN1CCN(C2=C(Cl)C(=O)N(c3cccc(Cl)c3)C2=O)CC1
IC50 (Bcl-2-related protein A1 [1]): 2.15 µM (active)
IC50 (Bcl-2-related protein A1 [2]): 1.17 µM (active)
IC50 [3]: > 100 µM (not active)

COc1ccc(S(=O)(=O)N(CC(=O)Nc2ccc(S(=O)(=O)N3CCOCC3)cc2)Cc2ccc(F)cc2)cc1
IC50 [4]: > 43.8 µM (not active)
IC50 [5]: > 43.8 µM (not active)

O=C(NC12CC3CC(CC(C3)C1)C2)c1ccccc1O
IC50 (Bcl-2-related protein A1 [2]): > 100 µM (not active)
IC50 (Bcl-2-related protein A1 [6]): > 100 µM (not active)

CC(C)NC(=O)/C(C#N)=C/c1ccc(N(C)C)o1
EC50 [7]: > 100 µM (active)

OCC1OC(c2ccccc2)C=CC1Oc1cc(Cl)cc(Cl)c1 (centres undefined)
AC50 (Cytochrome P450 2C19): 1.26 µM (inconclusive)

CC(C)NCC(O)Cn1c2c(c3ccccc31)CCc1c-2cnn1-c1ccccc1 (centres undefined)
EC50 [8]: 6.18 µM (active)
EC50 [9]: 8.19 µM (active)
EC50 [10]: 10.7 µM (active)
IC50 [11]: 3.51 µM (active)

O=C(NCc1ccccc1)NC1(C(=O)N2CCCC2)CCCCC1
EC50 [12]: > 50 µM (not active)
